Measurements: patent US20040157809A1, “Composition comprising an androgen receptor blocker and an insulin sensitizing agent and use thereof for treatment of polycystic ovary syndrome” (priority 2001, published 2004)

Experiments:
[1] = test system: women with ovarian hyperandrogenism; assay: Example 1: ovulation assessment by weekly serum progesterone; format: in vivo, human; conditions: after 9 months; weekly serum progesterone measurements
Description: Prior to start of treatment, ovulatory function was documented twice (months −3 and −1) by measuring serum progesterone concentrations in 4 consecutive samples obtained with an interval of 1 week. […] The ovulation results before start of treatment are the average of the results obtained during month -3 and -1, whereas the 3 months results are the mean of those obtained after 2 and 4 months on treatment.

[2] = test system: women with ovarian hyperandrogenism; assay: Example 1: tolerability and safety variables (blood count, liver-kidney function); format: in vivo, human; conditions: flutamide 250 mg/day
Description: After 6 months on either monotherapy or combined therapy, fasting glucose and insulin were reassessed together with serum LH (luteinizing hormone), FSH (Follicle stimulating hormone), estradiol, testosterone, androstenedione, DHEAS, SHBG, and lipid profile. Blood count and liver-kidney function were also screened after 1, 3, and 6 months, as additional safety variables.

CC(C)C(=O)Nc1ccc([N+](=O)[O-])c(C(F)(F)F)c1 [Flutamide, 2-methyl-N-[4-nitro-3(trifluoromethyl)phenyl] popanamide]
monthly fraction of ovulatory cycles [1]: 20%
women complaining of dry skin [2]: 1 of 10
